Data published in paper PMC6123711, “Conformational signatures in β-arrestin2 reveal natural biased agonism at a G-protein-coupled receptor” (Communications Biology, 2018).

Assays:
Galr2 = Galr2 internalization assay based on HiBiT technology; format: cell-based, human; details: 30 μM Cmpd101 30 min; 25 μM PitStop 2 (clathrin) 15 min; 80 μM Dynasore (dynamin) 40 min; Galanin 30 min
Description: The HiBiT protein tagging system, like NanoBiT technology, consists of two subunits: the large fragment (LgBiT) with 156 amino acids and the small fragment of Nluc (SmBiT-High-affinity) with only 11 amino acids that has a very high affinity to LgBit. To quantify Galr2 at the cell surface, cells expressing Galr2 tagged with the SmBiT-High-affinity were treated with cell-impermeable LgBiT along with the Nluc substrate furimazine. SmBiT-High-affinity-Galr2 on the cell surface binds to LgBiT which produces a luminescent signal, while SmBiT-High-affinity-Galr2 inside the cells cannot bind to LgBiT (Fig. 4a).
Fig. 4 Internalization of Galr2. a Schematic representation of the internalization assay. […] Before ligand stimulation, cells were pretreated with 30 μM Cmpd101 (a GRK2/3 inhibitor) for 30 min, 25 μM PitStop 2 (a Clathrin inhibitor) for 15 min, and 80 μM Dynasore (a Dynamin inhibitor) for 40 min. […] Remaining cell surface receptors were determined by measuring the luminescent signal produced by the binding between LgBiT and the Galr2-SmBiT-High affinity. Each data point represents mean ± s. e. m. of two independent experiments performed in triplicate
(§1) Quantification of bias between each pathway was performed using Galanin as a reference ligand. All incubations for the different signaling assays were performed in serum-free medium to prevent peptide degradation.
Internalization assays were performed using the Nano-Glo HiBiT extracellular detection system acquired from Promega Corporation (Cat. No. N2421). The day before transfection, HEK293 cells were seeded in 96-well plates at a density of 2.5 × 10^4 cells per well. The following day, cells were transfected with a mixture prepared containing 0.5 ng of SmBiT-high-affinity-Galr2 construct and 0.2 μl Lipofectamine 2000 (Invitrogen) added to each well. […] Then luminescence values were recorded immediately (Synergy 2 Multi-Mode Microplate Reader BioTek). […]

[1] = system: Galr2–β-arrestin2–clathrin complex; experiment: β-arrestin2–clathrin interactions (NanoBit); format: cell-based, human; details: 30 μM cmpd101 (GRK2/3 inhibitor) pretreatment; 10 μM agonist
Description: The interaction between β-arrestin2 and clathrin induced by the activation of Galr2 was examined using the NanoBit technology. We measured real-time association of the protein complex Galr2–β-arrestin2–clathrin. We constructed β-arrestin2 and clathrin subunit A tagged with LgBit or SmBit at the C or N termini and screened eight different plasmid combinations, out of which only one combination (β-arrestin2–LgBit:SmBit–clathrin) responded to ligand stimulation (Fig. 3, Supplementary Fig. 3). Before ligand stimulation, Galr2, β-arrestin2, and clathrin were not in close proximity and so the basal luminescence was very low. […] A time course experiment was initially performed to determine the time at which the maximal increase in luminescence occurred following agonist stimulation. All ligands except for Fmoc-dA4-dQ14 induced different fold increase in luminescence immediately after ligand treatment (Fig. 3b). […] Galanin- and Spexin-induced increases in luminescence were attenuated by pretreatment of cmpd101, a G-protein-coupled receptor kinase 2/3 (GRK2/3) inhibitor, indicating contribution of GRK2/3 in the formation of Galr2–β-arrestin2–clathrin complex (Fig. 3).
The arrows indicate the time when the cells were treated with different ligands. […] The results are expressed as mean ± s.e.m. of three experiments performed in triplicate. Each triplicate was averaged before calculating the s.e.m.
as §1
One day before transfection, cells were seeded in 96-well plates at a density of 2.5 × 10^4 cells per well. A mixture containing 35 ng β-arrestin construct containing the LgBit or SmBit, 35 ng clathrin subunit A containing one of the two domains of Nluc and 30 ng untagged receptor, and 0.2 μl Lipofectamine 2000 (Invitrogen) was prepared and added to each well. We followed the assay manufacturer’s instructions and tested eight β-arrestin-clathrin plasmid combinations. In only one plasmid combination we were able to observe luminescent signal and it was chosen for further experiments. At 24 h post transfection, medium was aspirated and replaced with 100 μl OPTIMEM at room temperature. After a 10-min incubation, 25 μl substrate (furimazine) was added and the luminescence was monitored once every minute for 10 min. Then, 10 μl ligand was added to each well and the luminescence values were recorded immediately and once every minute for 1 h (Synergy 2 Multi-Mode Microplate Reader BioTek).

[2] = system: luteinizing hormone (LH) secretion; details: cited from earlier work
Description: G-protein-coupled receptors (GPCRs) are the largest family of cell surface receptors that communicate extracellular stimuli to the cell interior[1]. Biased ligands are of particular interest because they offer the possibility to design a novel class of therapeutic agents. In some GPCRs, biased ligands that preferentially activate G-protein-dependent signaling have therapeutic potential. […] Most descriptions of biased ag ...

| Compound | effect of inhibitor on Galanin-induced Galr2 internalization (Galr2) | effect of pretreatment on Galanin- and Spexin-induced β-arrestin2–clathrin luminescence increase [1] | LH secretion, rat [2] |
| --- | --- | --- | --- |
| Cn1c(CNc2cccc(C(=O)NCc3ccccc3C(F)(F)F)c2)nnc1-c1ccncc1 [cmpd101, reference compound] | partially blocked | attenuated | – |
| galanin-like peptide: galanin-like peptide, a Galanin paralog (APAHRGRGGWTLNSAGYLLGPVLHLPQMGDQDGKRETALEILDLWKAIDGLPYSHPPQPS; Galanin-like peptide; UniProt Q9UBC7 25-84, looked up) | – | – | stimulates luteinizing hormone (LH) secretion |
